Values quoted from earlier work in paper PMC10933920, “Synthesis and Anti-Inflammatory Activity of Ferulic Acid-Sesquiterpene Lactone Hybrids” (Molecules, 2024).

Test system: primary lung fibroblasts derived from patients with IPF and non-diseased controls
Set-up: method as in PMID 33730605
Conditions: unstimulated fibroblasts, 0–10 µM ACT001; cited from earlier work

CC1=C2CC[C@@](C)(O)[C@@H]2[C@H]2OC(=O)[C@@H](CN(C)C)[C@@H]2CC1 [ACT001]
IL-6 production: inhibited IL-6
